Tests used:
Fusarium virguliforme [1] = assay: Sensitivity of F. virguliforme isolates: mycelial growth inhibition on amended potato dextrose agar plates; type: cell-based; conditions: for ED50 (effective dose for 50% of the fungal growth inhibition): potato dextrose agar, 20° C., 9 days
Procedure: The sensitivity of 4 F. virguliforme isolates to the compound No. 1.001 was determined by comparing the mycelial growth inhibition of on potato dextrose agar plates amended or not with the compound No. 1.001. The compound No. 1.001 was tested at the following concentrations: 0, 0.001, 0.01, 0.1, 1 and 10 mg.ai./L. The fungicide fludioxonil (commercial formulation Maxim 4 FS) was included in the sensitivity study. The plates were incubated at 20° C. for 9 days. The sensitivity test was set in a completely randomized design with 2 replications for each concentration of fungicide tested. Data obtained for each isolate was transformed using an arcsine transformation. The effective dose for 50% of the fungal growth inhibition (ED50 values) was calculated by regressing the transformed growth inhibition data against the log of the fungicide concentration.

Fusarium virguliforme [2] = assay: Seed treatment efficacy against soybean sudden death syndrome (inoculated seeds in rolled paper towels); type: in vivo; conditions: fungicide rate 2.5 mg a.i./100 kg seed; soybean cultivar S36-B6, isolate 10-118, hypocotyls and roots, 19 days at 18° C., mean of 3 replications
Procedure: A study was conducted to determine the efficacy of the compound No. 1.001 against F. virguliforme the causal agent of the sudden death syndrome on soybeans. Soybean seeds of the cultivar S36-B6 were treated with the compound No. […] […] Ten soybean seeds were placed on a paper towel (Scotts paper towels, 25.4 cm×33.02 cm in size) that has been previously moistened with 40 milliliters of water. Seeds were inculated with 100 microliters of a F. virguliforme conidial suspension adjusted to 100,000 conidia per milliliter of water. The isolate with the identification number 10-118 of F. virguliforme was used used in this study since it is sensitive to fludioxonil. Inoculated seeds seeds were then covered with another paper towel. Starting at one end, the paper towels with seeds were rolled loosely in a cylinder-fashion. The rolled paper towels with the inoculated seeds were placed into a zipped plastic bag. Bags were labelled with the fungicide treatment and dated. Bags with seeds were then placed in a growth room at a temperature of 18° C. and 12 h photoperiod for 19 days. The study was conducted using a completely randomized design with 3 replications. Disease severity was conducted on the hypocotyls and roots and measured as percentage.

N#Cc1c[nH]cc1-c1cccc2c1OC(F)(F)O2 [Fludioxonil, fludioxonil]
ED50 (effective dose for 50% of the fungal growth inhibition) (Fusarium virguliforme [1]; isolate 10-118): 0.206 mg ai/L
ED50 (effective dose for 50% of the fungal growth inhibition) (Fusarium virguliforme [1]; isolate 10-119): >10 mg ai/L
ED50 (effective dose for 50% of the fungal growth inhibition) (Fusarium virguliforme [1]; isolate 10-120): >10 mg ai/L
ED50 (effective dose for 50% of the fungal growth inhibition) (Fusarium virguliforme [1]; isolate 10-230): >10 mg ai/L
sensitivity of isolate to the fungicide (in words) (Fusarium virguliforme [1]; one isolate of 4): sensitive
dose response of isolates to the fungicide (in words) (Fusarium virguliforme [1]; the other 3 isolates of 4): not a dose response
% disease severity (Fusarium virguliforme [2]): 20.9%

Source: patent US20150223457A1, “METHOD OF COMBATTING SOYBEAN SUDDEN DEATH SYNDROME USING SUBSTITUTED PYRAZOLAMIDES” (Syngenta Participations AG, priority 2012, published 2015)
